Tests used:
NK3R [1] = molecular target: T1, NK3R (Homo sapiens, UniProt P29371); experiment: IP accumulation assay, NK3R activation (HEK293-T cells); assay type: cell-based; conditions: 1 µM SP; Supplemental Figure S3, % of cognate native ligand (NKB) response; single experiment (n=1); also ref [11]
T1 construct: host or cells: HEK293-T
T1 sequence (P29371 1-465): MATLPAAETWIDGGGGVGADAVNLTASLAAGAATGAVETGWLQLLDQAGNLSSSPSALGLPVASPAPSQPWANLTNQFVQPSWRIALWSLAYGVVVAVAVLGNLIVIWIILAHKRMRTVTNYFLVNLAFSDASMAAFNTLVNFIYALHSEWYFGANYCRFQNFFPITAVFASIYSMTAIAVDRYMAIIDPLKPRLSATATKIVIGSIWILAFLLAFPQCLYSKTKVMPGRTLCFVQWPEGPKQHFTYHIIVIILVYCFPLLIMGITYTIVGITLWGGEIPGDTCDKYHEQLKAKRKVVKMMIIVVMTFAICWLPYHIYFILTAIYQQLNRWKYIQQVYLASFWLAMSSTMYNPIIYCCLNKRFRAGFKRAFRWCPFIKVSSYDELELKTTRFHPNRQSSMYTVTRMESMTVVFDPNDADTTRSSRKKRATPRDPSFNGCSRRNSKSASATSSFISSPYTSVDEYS
From the text: (§1) pcDNA mammalian expression vectors encoding human NK3R (GenBank accession number: AY462098), NK2R (GenBank accession number: AY322545), NK1R (GenBank accession number: AY462099) and MRGPRX2 (GenBank accession number: NM_054030) were obtained from the Bloomsburg University cDNA Resource Center (www.cdna.org [accessed on 18 October 2018]). The NK1R, NK2R and NK3R vectors included an N-terminal 3xHA epitope tag. The empty vector, pcDNA3.1, was obtained from Thermo Fisher Scientific (Waltham, MA, USA). […] Talnetant was kindly supplied by Dr Mike Trower (NeRRe Therapeutics, Stevenage, UK).
(§2) Modified human embryonic kidney cells (HEK293-T; American Tissue and Cell Culture Collection), which provide a ‘blank’ background (with little/no endogenous tachykinin receptor nor MRGPRX2 expression) and stably express large T-antigen for optimal expression of exogenous proteins, were utilised. […]
(§3) The tachykinin receptors elicit intracellular signalling responses primarily through coupling to, and the activation of, Gαq/11 G proteins. […] These can be isolated using ion exchange chromatography and their radioactivity measured, with the amount of radiolabelled IP generated (i.e., the level of radioactivity measured) being proportional to the signalling activity of the receptor [48]. […]

NK1R [2] = conditions: native tachykinins; ref [11],[13]; cited from earlier work
[3] = system: all three tachykinin receptors (NK1R, NK2R, NK3R); conditions: albeit with differing potencies; ref [11],[13]; cited from earlier work
MRGPRX2 = conditions: ref [14]; cited from earlier work
From the text: Glioblastoma multiforme is one of the most common and most aggressive forms of central nervous system tumour and, despite therapeutic advances, it remains largely incurable. […] SP is a member of the tachykinin family of neuropeptides, of which the other classical members are neurokinin-A (NKA) and ...

NK1R [4] = molecular target: T2, NK1R (Homo sapiens, UniProt P25103); experiment: IP accumulation assay, NK1R activation (HEK293-T cells); assay type: cell-based; conditions: HEK293-T cells transfected with NK1R, 1 h at 37 °C, mean ± SEM (n = 3)
T2 construct: host or cells: HEK293-T
T2 sequence (P25103 whole entry): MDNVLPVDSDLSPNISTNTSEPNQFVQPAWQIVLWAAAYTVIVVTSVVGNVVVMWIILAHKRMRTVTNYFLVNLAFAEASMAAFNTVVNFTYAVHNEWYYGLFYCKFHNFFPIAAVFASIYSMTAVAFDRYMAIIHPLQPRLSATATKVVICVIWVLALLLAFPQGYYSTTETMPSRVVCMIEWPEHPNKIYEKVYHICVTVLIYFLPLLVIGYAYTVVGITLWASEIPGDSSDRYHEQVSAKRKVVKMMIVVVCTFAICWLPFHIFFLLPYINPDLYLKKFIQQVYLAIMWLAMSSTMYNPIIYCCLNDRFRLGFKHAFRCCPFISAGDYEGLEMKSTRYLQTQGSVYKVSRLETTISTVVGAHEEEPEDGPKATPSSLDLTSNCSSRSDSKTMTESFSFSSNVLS
From the text: as §1, §2, §3

[5] = set-up: method as in PMID 31480582; conditions: ref [19]; cited from earlier work
[6] = ref [29]; cited from earlier work
From the text: In glioblastoma multiforme NK1Rs are believed to be highly expressed on the tumour cells and also within the tumour neovasculature, conferring the ability to concurrently target vascular and neoplastic structures. […] However, its therapeutic effectiveness is fairly constra ...

[7] = set-up: method as in PMID 31480582; conditions: ref [19]; cited from earlier work; remark: listed apart in the source
NK3R [8] = system: NK3R; set-up: method as in PMID 9190866; conditions: ref [49]; cited from earlier work
Method: For single-concentration analyses, cells were incubated with 1 µM [NK1R, NK2R, NK3R and empty vector) or 10 µM [MRGPRX2 and empty vector]

NK3R [9] = molecular target: T1, NK3R; experiment: NK3R antagonism, IP accumulation assay; assay type: cell-based; conditions: 1 µM compound, 30 min pre-incubation at 37 °C, then 30 nM NKB 1 h; Figure 4; n = 4 (talnetant: two experiments)
From the text: as §1
Modified human embryonic kidney cells (HEK293-T; American Tissue and Cell Culture Collection), which provide a ‘blank’ background (with little/no endogenous tachykinin receptor nor MRGPRX2 expression) and stably express large T-antigen for optimal expression of exogenous proteins, were utilised. Cells were cultured in a humidified atmosphere at 37 °C with 5% CO2 in Dulbecco’s Modified Eagle Medium containing GlutaMAX™ (DMEM) (Life Technologies, Carlsbad, CA, USA) supplemented with 10% foetal calf serum (FCS) (Life Technologies, Carlsbad, CA, USA). Cells were passaged regularly to maintain them at less than 80% confluence. […]

For `CSCC[C@H](NC(=O)[C@H](CC(C)C)NC(=O)CNC(=O)[C@H](Cc1ccccc1)NC(=O)[C@H](Cc1ccccc1)NC(=O)[C@H](CCC(N)=O)NC(=O)[C@H](CCC(N)=O)NC(=O)[C@@H]1CCCN1C(=O)[C@H](CCCCN)NC(=O)[C@@H]1CCCN1C(=O)[C@@H](N)CCCNC(=N)N)C(N)=O` [SP, Substance P], the “NK3R response to SP” value (NK3R [1]) is given as “able to elicit a response”, the “affinity for NK1R” value (NK1R [2]) is given as “highest affinity for NK1R” and the “agonism at all three tachykinin receptors” value [3] is given as “full agonists”. For the same compound, the “agonism at MRGPRX2” value (MRGPRX2) was “low potency agonist”.

For `CC(C)C[C@H](NC(=O)CNC(=O)[C@H](Cc1cccs1)NC(=O)[C@H](Cc1ccccc1)NC(=O)[C@H](CCC(N)=O)NC(=O)[C@H](CCC(N)=O)NC(=O)[C@@H]1CCCN1C(=O)[C@H](CCCCN)NC(=O)[C@@H]1CCCN1C(=O)[C@H](CCCNC(=N)N)NC(=O)CN1CCN(CC(=O)O)CCN(CC(=O)O)CCN(CC(=O)O)CC1)C(=O)N[C@@H](CCS(C)(=O)=O)C(N)=O` [DOTA-[Thi^8,Met(O2)^11]SP, 1,4,7,10-tetraazacyclododecane-1,4,7,10-tetraacetic acid-[Thi^8,Met(O2)^11]-SP], the Emax (NK1R [4]; HEK-293T, Table 2, % of the maximal response elicited by SP (Figure 3)) is given as 89 ± 1%, the EC50 (NK1R [4]; Table 2, comparison of SP with DOTA-[Thi8,Met(O2)11]SP) is given as 3.31 nM and the “in vivo half-life compared to native SP” value [5] is given as “increased lipophilicity and in vivo half-life”. For the same compound, the metabolic stability [6] was “metabolically stable” and the “lipophilicity compared to native SP” value [7] was “increased lipophilicity”.

For `CC[C@H](NC(=O)c1c(O)c(-c2ccccc2)nc2ccccc12)c1ccccc1` [talnetant, (S)-N-(1-phenylpropyl)-3-hydroxy-2-phenylquinoline-4-carboxamide], the NK3R antagonism (NK3R [8]) is given as “non-peptide antagonist of the NK3R” and the “inhibition of NK3R activation” value (NK3R [9]) is given as “NKB-induced NK3R activation was completely abolished”.
